{
  "source": "paper PMC9787607",
  "about": "“A Novel Protocol for the Synthesis of 1,2,4-Oxadiazoles Active against Trypanosomatids and Drug-Resistant Leukemia Cell Lines” (Tropical Medicine and Infectious Disease, 2022)",
  "key": {"[1]": {"target": "T1, human serum albumin (HSA) (Homo sapiens, UniProt P02768)", "T1 construct": "purchased Sigma-Aldrich A3782-1G", "T1 sequence (P02768 25-609)": "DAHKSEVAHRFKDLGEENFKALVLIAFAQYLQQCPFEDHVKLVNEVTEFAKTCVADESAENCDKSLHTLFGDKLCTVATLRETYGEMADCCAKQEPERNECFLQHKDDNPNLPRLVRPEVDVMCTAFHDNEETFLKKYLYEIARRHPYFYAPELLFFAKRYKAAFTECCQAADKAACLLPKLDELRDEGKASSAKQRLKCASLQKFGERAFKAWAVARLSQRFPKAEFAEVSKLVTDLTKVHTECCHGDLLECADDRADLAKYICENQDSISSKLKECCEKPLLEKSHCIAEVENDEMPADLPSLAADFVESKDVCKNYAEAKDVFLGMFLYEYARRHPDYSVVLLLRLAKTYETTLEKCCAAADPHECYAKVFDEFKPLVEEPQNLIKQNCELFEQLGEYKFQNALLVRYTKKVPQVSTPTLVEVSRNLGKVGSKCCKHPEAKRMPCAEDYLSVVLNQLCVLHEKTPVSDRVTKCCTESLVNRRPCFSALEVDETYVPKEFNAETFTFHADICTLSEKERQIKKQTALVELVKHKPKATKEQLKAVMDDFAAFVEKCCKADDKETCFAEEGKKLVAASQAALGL", "assay": "Steady-state fluorescence quenching of HSA", "assay_type": "binding", "details": "for KSV (Stern-Volmer quenching constant) / kq (bimolecular quenching rate constant) / n (number of binding sites): PBS", "protocol": "Steady-state fluorescence and circular dichroism (CD) spectra were measured on a Jasco J-815 optical spectrometer employing a Jasco PFD-425S15F thermostatic cuvette holder. All spectra were recorded with appropriate background corrections. For the steady-state fluorescence data, inner filter corrections were performed, following the literature.\nThe steady-state fluorescence measurements were carried out in the 290–450 nm range (λexc = 280 nm) at 289, 296, 303, 310, and 317 K. The addition of compound 23 to a 3.0 mL HSA solution (1.0 × 10^−5 M, in PBS) was done manually, achieving final concentrations of 0.17, 0.33, 0.50, 0.66, 0.83, 0.99, 1.15, and 1.32 × 10^−5 M. To obtain quantitative information on the binding capacity of 23 to HSA, Stern-Volmer, double-logarithmic, van’t Hoff, and Gibbs’ free energy analysis were applied following our previous works."}, "[2]": {"target": "T1, human serum albumin (HSA)", "assay": "Time-resolved fluorescence of HSA", "assay_type": "binding", "details": "HSA 1.0 × 10^−5 M with 23 1.32 × 10^−5 M, pH 7.4, 296 K", "protocol": "Time-resolved fluorescence measurements were performed on a model FL920 CD fluorimeter from Edinburgh Instruments equipped with an EPL laser (λexc = 280 ± 10 nm; pulse of 850 ps with energy of 1.8 µW/pulse; monitoring emission at 340 nm). The time-resolved fluorescence decays of a 3.0 mL HSA solution (1.0 × 10^−5 M, in PBS) were obtained without and with compound 23 (1.32 × 10^−5 M)."}},
  "data": [
    {"smiles": "COc1cc(/C=C/c2nc(-c3cc(OC)c(OC)c(OC)c3)no2)cc(OC)c1OC", "note": "[Compound 23, (E)-3-(3,4,5-trimethoxyphenyl)-5-[2-(3,4,5-trimethoxyphenyl)-vinyl]-1,2,4-oxadiazole]", "values": [
      {"measurement": "ΔG°", "setting": "[1]; 289 K", "result": "−28.7", "unit": "kJmol^−1"},
      {"measurement": "KSV (Stern-Volmer quenching constant)", "setting": "[1]; 289 K", "result": "1.56 ± 0.02 × 10^5 M^−1"},
      {"measurement": "kq (bimolecular quenching rate constant)", "setting": "[1]; 289 K", "result": "3.22e+13", "unit": "M⁻¹ s⁻¹"},
      {"measurement": "n (number of binding sites)", "setting": "[1]; 289 K", "result": "0.992 ± 0.01"},
      {"measurement": "KSV values, order of magnitude", "setting": "[1]; 289–317 K", "result": "~10^5 M^−1"},
      {"measurement": "kq values, order of magnitude", "setting": "[1]; 289–317 K", "result": "~10^13 M^−1s^−1"},
      {"measurement": "ΔG°", "setting": "[1]; 296 K", "result": "−29.2", "unit": "kJmol^−1"},
      {"measurement": "KSV (Stern-Volmer quenching constant)", "setting": "[1]; 296 K", "result": "1.44 ± 0.02 × 10^5 M^−1"},
      {"measurement": "kq (bimolecular quenching rate constant)", "setting": "[1]; 296 K", "result": "2.97e+13", "unit": "M⁻¹ s⁻¹"},
      {"measurement": "n (number of binding sites)", "setting": "[1]; 296 K", "result": "1.04 ± 0.01"},
      {"measurement": "ΔG°", "setting": "[1]; 303 K", "result": "−29.7", "unit": "kJmol^−1"},
      {"measurement": "KSV (Stern-Volmer quenching constant)", "setting": "[1]; 303 K", "result": "1.31 ± 0.07 × 10^5 M^−1"},
      {"measurement": "kq (bimolecular quenching rate constant)", "setting": "[1]; 303 K", "result": "2.7e+13", "unit": "M⁻¹ s⁻¹"},
      {"measurement": "n (number of binding sites)", "setting": "[1]; 303 K", "result": "1.09 ± 0.01"},
      {"measurement": "ΔG°", "setting": "[1]; 310 K", "result": "−30.2", "unit": "kJmol^−1"},
      {"measurement": "KSV (Stern-Volmer quenching constant)", "setting": "[1]; 310 K", "result": "1.22 ± 0.01 × 10^5 M^−1"},
      {"measurement": "kq (bimolecular quenching rate constant)", "setting": "[1]; 310 K", "result": "2.52e+13", "unit": "M⁻¹ s⁻¹"},
      {"measurement": "n (number of binding sites)", "setting": "[1]; 310 K", "result": "1.02 ± 0.01"},
      {"measurement": "ΔG°", "setting": "[1]; 317 K", "result": "−30.7", "unit": "kJmol^−1"},
      {"measurement": "KSV (Stern-Volmer quenching constant)", "setting": "[1]; 317 K", "result": "1.19 ± 0.02 × 10^5 M^−1"},
      {"measurement": "kq (bimolecular quenching rate constant)", "setting": "[1]; 317 K", "result": "2.45e+13", "unit": "M⁻¹ s⁻¹"},
      {"measurement": "n (number of binding sites)", "setting": "[1]; 317 K", "result": "1.02 ± 0.01"},
      {"measurement": "ΔH°", "setting": "[1]; van't Hoff analysis, 289–317 K", "result": "−7.85 ± 0.71", "unit": "kJmol^−1"},
      {"measurement": "ΔS°", "setting": "[1]; van't Hoff analysis, 289–317 K", "result": "72.2 ± 2.3 J/(mol·K)"},
      {"measurement": "%Relative τ1 of HSA:23", "setting": "[2]", "result": 23.5, "unit": "%"},
      {"measurement": "%Relative τ2 of HSA:23", "setting": "[2]", "result": 76.5, "unit": "%"},
      {"measurement": "τ1 of HSA:23", "setting": "[2]", "result": "1.59 ± 0.11", "unit": "ns"},
      {"measurement": "τ2 of HSA:23", "setting": "[2]", "result": "5.70 ± 0.12", "unit": "ns"},
      {"measurement": "τaverage of HSA:23", "setting": "[2]", "result": "4.73 ± 0.11", "unit": "ns"}
    ]}
  ]
}
